# Measured values as given in patent publication US12721844B2, “Chronic kidney disease treatment or prevention method” (Japan Tobacco Inc., priority 2019, dated 2026).
# Where “and” joins values, the source holds several entries; their conditions need not be identical. Identical values can stand only once.
# Assays:
# Assay type in all cases: cell-based
# [1] = test system: Escherichia coli WP2 uvrA; assay: Ames test (reverse mutation test), WP2 uvrA; conditions: for Number of revertant colonies WP2uvrA: S9 Mix −
# From the text: (§1) Ames Test (Reverse Mutation Test)
# (§2) Two plates per treatment were used.
# [2] = test system: Salmonella typhimurium TA1537; assay: Ames test (reverse mutation test), TA1537
# From the text: as §1, §2
# [3] = test system: Salmonella typhimurium TA98; assay: Ames test (reverse mutation test), TA98; conditions: with S9 mix
# From the text: as §1, §2
# [4] = test system: Salmonella typhimurium TA1535; assay: Ames test (reverse mutation test), TA1535
# From the text: as §1, §2
# [5] = test system: Salmonella typhimurium (TA98, TA1537, TA100, and TA1535) and Escherichia coli (WP2 uvrA); assay: Ames test (reverse mutation test), all bacterial tester strains; conditions: any of the bacterial tester strains, with and/or without S9 mix
# From the text: as §1, §2
# [6] = test system: Salmonella typhimurium TA100; assay: Ames test (reverse mutation test), TA100; conditions: with S9 mix
# From the text: as §1, §2
# [7] = with S9 mix, dose 1667 μg/plate
# [8] = with S9 mix, dose 5000 μg/plate
SMILES,"potential to induce reverse mutations, TA98 [3]","Number of revertant colonies TA1535 ([4]; S9 Mix −, 2.3 μg/plate)","Number of revertant colonies TA1535 ([4]; S9 Mix −, 6.9 μg/plate)","Number of revertant colonies TA1535 ([4]; S9 Mix −, 21 μg/plate)","Number of revertant colonies TA1535 ([4]; S9 Mix −, 62 μg/plate)","Number of revertant colonies TA1535 ([4]; S9 Mix −, 185 μg/plate)","Number of revertant colonies TA1535 ([4]; S9 Mix −, 556 μg/plate)","Number of revertant colonies TA1535 ([4]; S9 Mix −, 1667 μg/plate)","Number of revertant colonies TA1535 ([4]; S9 Mix −, 5000 μg/plate)","potential to induce reverse mutations, TA100 [6]","potential to induce reverse mutations, TA1537 ([2]; with S9 mix)","Number of revertant colonies TA1535 ([4]; S9 Mix +, 2.3 μg/plate)","Number of revertant colonies TA1535 ([4]; S9 Mix +, 6.9 μg/plate)","Number of revertant colonies TA1535 ([4]; S9 Mix +, 21 μg/plate)","Number of revertant colonies TA1535 ([4]; S9 Mix +, 62 μg/plate)","Number of revertant colonies TA1535 ([4]; S9 Mix +, 185 μg/plate)","Number of revertant colonies TA1535 ([4]; S9 Mix +, 556 μg/plate)","Number of revertant colonies TA1535 ([4]; S9 Mix +, 1667 μg/plate)","Number of revertant colonies TA1535 ([4]; S9 Mix +, 5000 μg/plate)",other results
"NC(=O)C(=Cc1ccc([N+](=O)[O-])o1)c1ccco1 [AF-2, 2-(2-Furyl)-3-(5-nitro-2-furyl)acrylamide, reference compound]",,,,,,,,,,,,,,,,,,,,Number of revertant colonies WP2uvrA ([1]; 0.01 μg/plate): 74 and 89 and 100 and 87 and 79
"Nc1ccc2cc3ccccc3cc2c1 [Example 2AA, 2-Aminoanthracene, reference compound]",,,,,,,,,,,,,,,,,,,,"Number of revertant colonies TA1537 ([2]; with S9 mix, dose 2 μg/plate (positive control)): 135; Number of revertant colonies TA98 ([3]; dose 0.5 μg/plate (positive control)): 289; Number of revertant colonies TA1535 ([4]; S9 Mix +, 2.0 μg/plate): 332 and 308 and 331 and 261 and 349; Number of revertant colonies TA1535 ([4]; with S9 mix, dose 2.0 (2) μg/plate (positive control)): 223 and 146 and 250"
"Cl.Nc1c2ccccc2nc2ccccc12.O [Example 9AA, 9-Aminoacridine hydrochloride monohydrate, reference compound]",,,,,,,,,,,,,,,,,,,,"Number of revertant colonies TA1537 ([2]; without S9 mix, dose 80 μg/plate (positive control)): 372"
CC(C)(C)Oc1cc(F)cc(-c2cc(N)nn2C(F)(F)F)c1 [Metabolite 1],,,,,,,,,,,,,,,,,,,,"potential to induce reverse mutations [5]: did not show potential to induce reverse mutations; Number of revertant colonies TA1535 ([4]; with S9 mix, dose 2.3 μg/plate): 13; Number of revertant colonies TA1535 ([4]; with S9 mix, dose 6.9 μg/plate): 7; Number of revertant colonies TA1535 ([4]; with S9 mix, dose 21 μg/plate): 6; Number of revertant colonies TA1535 ([4]; with S9 mix, dose 62 μg/plate): 8; Number of revertant colonies TA1535 ([4]; with S9 mix, dose 185 μg/plate): 5; Number of revertant colonies TA1535 ([4]; with S9 mix, dose 556 μg/plate): 4; Number of revertant colonies TA1535 [4, 7]: 4; Number of revertant colonies TA1535 [4, 8]: 2; Number of revertant colonies TA1535 ([4]; without S9 mix, dose 2.3 μg/plate): 6; Number of revertant colonies TA1535 ([4]; without S9 mix, dose 6.9 μg/plate): 9; Number of revertant colonies TA1535 ([4]; without S9 mix, dose 21 μg/plate): 8; Number of revertant colonies TA1535 ([4]; without S9 mix, dose 62 μg/plate): 8; Number of revertant colonies TA1535 ([4]; without S9 mix, dose 185 μg/plate): 0; Number of revertant colonies TA1535 ([4]; without S9 mix, dose 556 μg/plate): 0; Number of revertant colonies TA1535 ([4]; without S9 mix, dose 1667 μg/plate): 0; Number of revertant colonies TA1535 ([4]; without S9 mix, dose 5000 μg/plate): 0"
CC(C)(C)Oc1cccc(-c2cc(N)nn2-c2ccccc2)c1 [Metabolite C],showed potential to induce reverse mutations,6,5,6,3,4,0,1,0,showed potential to induce reverse mutations,,,,,,,,,,"Number of revertant colonies TA1537 ([2]; with S9 mix, dose 2.3 μg/plate): 6; Number of revertant colonies TA1537 ([2]; with S9 mix, dose 6.9 μg/plate): 7; Number of revertant colonies TA1537 ([2]; with S9 mix, dose 21 μg/plate): 7; Number of revertant colonies TA1537 ([2]; with S9 mix, dose 62 μg/plate): 9; Number of revertant colonies TA1537 ([2]; with S9 mix, dose 185 μg/plate): 9; Number of revertant colonies TA1537 ([2]; with S9 mix, dose 556 μg/plate): 4; Number of revertant colonies TA1537 [2, 7]: 4; Number of revertant colonies TA1537 [2, 8]: 5; Number of revertant colonies TA1535 ([4]; with S9 mix, dose 2.3 μg/plate): 8; Number of revertant colonies TA1535 ([4]; with S9 mix, dose 6.9 μg/plate): 8; Number of revertant colonies TA1535 ([4]; with S9 mix, dose 21 μg/plate): 5; Number of revertant colonies TA1535 ([4]; with S9 mix, dose 62 μg/plate): 4; Number of revertant colonies TA1535 ([4]; with S9 mix, dose 185 μg/plate): 5; Number of revertant colonies TA1535 ([4]; with S9 mix, dose 556 μg/plate): 4; Number of revertant colonies TA1535 [4, 7]: 5; Number of revertant colonies TA1535 [4, 8]: 4"
CC(C)(OCc1cc(F)cc(-c2cc(N)nn2-c2ccc(F)cc2)c1)C(F)(F)F [Metabolite D],showed potential to induce reverse mutations,20,21,11,6,9,5,6,7,,showed potential to induce reverse mutations,10,15,14,11,9,7,7,3,
Nc1cc(-c2cccc(OCC(F)(F)F)c2)n(-c2ccc(F)cc2)n1 [Metabolite E],showed potential to induce reverse mutations,10,18,12,15,6,0,0,0,showed potential to induce reverse mutations,showed potential to induce reverse mutations,18,32,20,21,15,7,0,0,"potential to induce reverse mutations, TA1537 ([2]; without S9 mix): showed potential to induce reverse mutations; potential to induce reverse mutations, TA1535 ([4]; with S9 mix): showed potential to induce reverse mutations; Number of revertant colonies WP2uvrA ([1]; 2.3 μg/plate): 20; Number of revertant colonies WP2uvrA ([1]; 6.9 μg/plate): 26; Number of revertant colonies WP2uvrA ([1]; 21 μg/plate): 24; Number of revertant colonies WP2uvrA ([1]; 62 μg/plate): 27; Number of revertant colonies WP2uvrA ([1]; 185 μg/plate): 22; Number of revertant colonies WP2uvrA ([1]; 556 μg/plate): 10; Number of revertant colonies WP2uvrA ([1]; 1667 μg/plate): 15; Number of revertant colonies WP2uvrA ([1]; 5000 μg/plate): 7"
Cc1ccc(-n2nc(N)cc2-c2cccc(OCC(F)(F)F)c2)cc1 [Metabolite F],showed potential to induce reverse mutations,17,13,19,11,3,0,0,0,showed potential to induce reverse mutations,showed potential to induce reverse mutations,22,21,20,23,13,7,0,0,"potential to induce reverse mutations, WP2 uvrA ([1]; without S9 mix): showed potential to induce reverse mutations"
Nc1cc(-c2cccc(OC(F)(F)F)c2)n(-c2cccc(F)c2)n1 [Metabolite G],,15,16,21,9,9,0,0,0,showed potential to induce reverse mutations,,12,14,11,8,5,5,4,4,"potential to induce reverse mutations, TA1535 ([4]; without S9 mix): showed potential to induce reverse mutations; Number of revertant colonies WP2uvrA ([1]; 2.3 μg/plate): 26; Number of revertant colonies WP2uvrA ([1]; 6.9 μg/plate): 23; Number of revertant colonies WP2uvrA ([1]; 21 μg/plate): 16; Number of revertant colonies WP2uvrA ([1]; 62 μg/plate): 14; Number of revertant colonies WP2uvrA ([1]; 185 μg/plate): 15; Number of revertant colonies WP2uvrA ([1]; 556 μg/plate): 10; Number of revertant colonies WP2uvrA ([1]; 1667 μg/plate): 17; Number of revertant colonies WP2uvrA ([1]; 5000 μg/plate): 6"
Cc1cccc(-n2nc(N)cc2-c2cccc(OC(F)(F)F)c2)c1 [Metabolite H],showed potential to induce reverse mutations,12,17,18,14,14,6,6,4,showed potential to induce reverse mutations,showed potential to induce reverse mutations,11,14,19,15,13,6,3,3,
